# According to patent publication US8952024B2, “Herbicidal pyrimidone derivatives” (E I du Pont de Nemours and Company, priority 2009, dated 2015):
# Key:
# Assay in all cases: Test B pre-/postemergence plant response
# Format in all cases: in vivo
# [1] = tested on: Italian ryegrass (Lolium multiflorum); details: for Ryegrass, Italian plant response rating (0 to 100 scale): 62 g ai/ha, 0 is no effect, 13 to 15 days
# In short: (§1)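 Visual injury, 0–100 scale (100 = complete control), rated against controls after 13 to 15 days in greenhouse. Pre-emergence: seeds in loam/sand soil, treated at planting. Post-emergence: 1- to 4-leaf plants (2 to 18 cm) in peat/vermiculite medium. Compounds formulated in non-phytotoxic solvent with surfactant.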
# [2] = tested on: giant foxtail (Setaria faberii); details: for Foxtail, Giant plant response rating (0 to 100 scale): 62 g ai/ha, 0 is no effect, 13 to 15 days
# In short: as §1
# [3] = tested on: yellow nutsedge (Cyperus esculentus); details: for Nutsedge, Yellow plant response rating (0 to 100 scale): 62 g ai/ha, 0 is no effect, 13 to 15 days
# In short: as §1
# [4] = tested on: corn (Zea mays); details: for Corn plant response rating (0 to 100 scale): 62 g ai/ha, 0 is no effect, 13 to 15 days
# In short: as §1
# [5] = tested on: large crabgrass (Digitaria sanguinalis); details: for Crabgrass, Large plant response rating (0 to 100 scale): 62 g ai/ha, 0 is no effect, 13 to 15 days
# In short: as §1
# [6] = tested on: blackgrass (Alopecurus myosuroides); details: for Blackgrass plant response rating (0 to 100 scale): 62 g ai/ha, 0 is no effect, 13 to 15 days
# In short: as §1
# [7] = tested on: lambsquarters (Chenopodium album); details: for Lambsquarters plant response rating (0 to 100 scale): 62 g ai/ha, 0 is no effect, 13 to 15 days
# In short: as §1
# [8] = tested on: woolly cupgrass (Eriochloa villosa); details: for Cupgrass, Woolly plant response rating (0 to 100 scale): 62 g ai/ha, 0 is no effect, 13 to 15 days
# In short: as §1
# [9] = tested on: morningglory (Ipomoea coccinea); details: for Morningglory plant response rating (0 to 100 scale): 62 g ai/ha, 0 is no effect, 13 to 15 days
# In short: as §1
# [10] = tested on: bermudagrass (Cynodon dactylon); details: for Bermudagrass plant response rating (0 to 100 scale): 62 g ai/ha, 0 is no effect, 13 to 15 days
# In short: as §1
# [11] = tested on: Surinam grass (Brachiaria decumbens); details: for Surinam Grass plant response rating (0 to 100 scale): 62 g ai/ha, 0 is no effect, 13 to 15 days
# In short: as §1
# [12] = tested on: downy bromegrass (Bromus tectorum); details: for Bromegrass, Downy plant response rating (0 to 100 scale): 62 g ai/ha, 0 is no effect, 13 to 15 days
# In short: as §1
# [13] = tested on: green foxtail (Setaria viridis); details: for Foxtail, Green plant response rating (0 to 100 scale): 62 g ai/ha, 0 is no effect, 13 to 15 days
# In short: as §1
# [14] = 31 g ai/ha, postemergence, scale 0 to 100, 0 is no effect, 100 is complete control
# [15] = postemergence, 100 is complete control
# [16] = Postemergence, 250 g ai/ha, scale 0 to 100 (0 no effect, 100 complete control)
# [17] = Postemergence, 125 g ai/ha, visual rating after 13 to 15 days, scale 0 (no effect) to 100 (complete control)
smiles,measurement,setting,value
CCCCCn1c(-c2ccccc2)ncc(C(=O)C2=C(O)CCCC2=O)c1=O [Compound 89],"Plant response rating, Ryegrass, Italian",[1]; [14],0
same,"Ryegrass, Italian plant response rating (0 to 100 scale)",[1]; [15],5
same,"Plant response rating, Ryegrass, Italian",[1]; [16],30
same,"Plant response rating, Foxtail, Giant",[2]; [14],70
same,"Foxtail, Giant plant response rating (0 to 100 scale)",[2]; [15],85
same,"Plant response rating, Foxtail, Giant",[2]; [16],98
same,"Plant response rating, Nutsedge, Yellow",[3]; [14],35
same,"Nutsedge, Yellow plant response rating (0 to 100 scale)",[3]; [15],55
same,"Plant response rating, Nutsedge, Yellow",[3]; [16],75
same,"Plant response rating, Corn",[4]; [14],80
same,Corn plant response rating (0 to 100 scale),[4]; [15],95
same,"Plant response rating, Corn",[4]; [17],98
same,"Plant response rating, Corn",[4]; [16],98
same,"Plant response rating, Crabgrass, Large",[5]; [14],85
same,"Crabgrass, Large plant response rating (0 to 100 scale)",[5]; [15],95
same,"Plant response rating, Crabgrass, Large",[5]; [17],95
same,"Plant response rating, Crabgrass, Large",[5]; [16],98
same,"Plant response rating, Blackgrass",[6]; [14],10
same,Blackgrass plant response rating (0 to 100 scale),[6]; [15],15
same,"Plant response rating, Blackgrass",[6]; [17],20
same,"Plant response rating, Blackgrass",[6]; [16],30
same,"Plant response rating, Lambsquarters",[7]; [14],95
same,Lambsquarters plant response rating (0 to 100 scale),[7]; [15],98
same,"Plant response rating, Lambsquarters",[7]; [16],100
same,"Plant response rating, Cupgrass, Woolly",[8]; [14],35
same,"Cupgrass, Woolly plant response rating (0 to 100 scale)",[8]; [15],50
same,"Plant response rating, Cupgrass, Woolly",[8]; [17],65
same,"Plant response rating, Cupgrass, Woolly",[8]; [16],75
same,"Plant response rating, Morningglory",[9]; [14],70
same,Morningglory plant response rating (0 to 100 scale),[9]; [15],85
same,"Plant response rating, Morningglory",[9]; [16],100
same,"Plant response rating, Bermudagrass",[10]; [14],75
same,Bermudagrass plant response rating (0 to 100 scale),[10]; [15],85
same,"Plant response rating, Bermudagrass",[10]; [17],95
same,"Plant response rating, Bermudagrass",[10]; [16],95
same,"Plant response rating, Surinam Grass",[11]; [14],55
same,Surinam Grass plant response rating (0 to 100 scale),[11]; [15],75
same,"Plant response rating, Surinam Grass",[11]; [16],95
same,"Plant response rating, Bromegrass, Downy",[12]; [14],0
same,"Bromegrass, Downy plant response rating (0 to 100 scale)",[12]; [15],0
same,"Plant response rating, Bromegrass, Downy",[12]; [17],5
same,"Plant response rating, Bromegrass, Downy",[12]; [16],5
same,"Plant response rating, Foxtail, Green",[13]; [14],60
same,"Foxtail, Green plant response rating (0 to 100 scale)",[13]; [15],70
same,"Plant response rating, Foxtail, Green",[13]; [16],80
CC(C)n1c(-c2ccccc2)ncc(C(=O)C2=C(O)CCCC2=O)c1=O [Compound 95],"Plant response rating, Ryegrass, Italian",[1]; [14],0
same,"Ryegrass, Italian plant response rating (0 to 100 scale)",[1]; [15],0
same,"Plant response rating, Ryegrass, Italian",[1]; [16],0
same,"Plant response rating, Foxtail, Giant",[2]; [14],45
same,"Foxtail, Giant plant response rating (0 to 100 scale)",[2]; [15],65
same,"Plant response rating, Foxtail, Giant",[2]; [16],85
same,"Plant response rating, Nutsedge, Yellow",[3]; [14],75
same,"Nutsedge, Yellow plant response rating (0 to 100 scale)",[3]; [15],75
same,"Plant response rating, Nutsedge, Yellow",[3]; [16],85
same,"Plant response rating, Corn",[4]; [14],0
same,Corn plant response rating (0 to 100 scale),[4]; [15],0
same,"Plant response rating, Corn",[4]; [17],25
same,"Plant response rating, Corn",[4]; [16],35
same,"Plant response rating, Crabgrass, Large",[5]; [14],45
same,"Crabgrass, Large plant response rating (0 to 100 scale)",[5]; [15],65
same,"Plant response rating, Crabgrass, Large",[5]; [17],75
same,"Plant response rating, Crabgrass, Large",[5]; [16],80
same,"Plant response rating, Blackgrass",[6]; [14],0
same,Blackgrass plant response rating (0 to 100 scale),[6]; [15],0
same,"Plant response rating, Blackgrass",[6]; [17],0
same,"Plant response rating, Blackgrass",[6]; [16],5
same,"Plant response rating, Lambsquarters",[7]; [14],80
same,Lambsquarters plant response rating (0 to 100 scale),[7]; [15],98
same,"Plant response rating, Lambsquarters",[7]; [16],100
same,"Plant response rating, Cupgrass, Woolly",[8]; [14],45
same,"Cupgrass, Woolly plant response rating (0 to 100 scale)",[8]; [15],55
same,"Plant response rating, Cupgrass, Woolly",[8]; [17],65
same,"Plant response rating, Cupgrass, Woolly",[8]; [16],65
same,"Plant response rating, Morningglory",[9]; [14],100
same,Morningglory plant response rating (0 to 100 scale),[9]; [15],100
same,"Plant response rating, Morningglory",[9]; [16],100
same,"Plant response rating, Bermudagrass",[10]; [14],45
same,Bermudagrass plant response rating (0 to 100 scale),[10]; [15],75
same,"Plant response rating, Bermudagrass",[10]; [17],75
same,"Plant response rating, Bermudagrass",[10]; [16],90
same,"Plant response rating, Surinam Grass",[11]; [14],45
same,Surinam Grass plant response rating (0 to 100 scale),[11]; [15],45
same,"Plant response rating, Surinam Grass",[11]; [16],70
same,"Plant response rating, Bromegrass, Downy",[12]; [14],0
same,"Bromegrass, Downy plant response rating (0 to 100 scale)",[12]; [15],0
same,"Plant response rating, Bromegrass, Downy",[12]; [17],0
same,"Plant response rating, Bromegrass, Downy",[12]; [16],0
same,"Plant response rating, Foxtail, Green",[13]; [14],20
same,"Foxtail, Green plant response rating (0 to 100 scale)",[13]; [15],50
same,"Plant response rating, Foxtail, Green",[13]; [16],90
